Data on 22 molecules can be found in patent publication US11160794B2, “Methods for treating congenital disorders of glycosylation” (Maggie's Pearl, LLC, priority 2018, dated 2021).

Counter-ions that a name gives are not always drawn.

The first assay has as its system SEC53 variant (pmm2 mutant) yeast. Put plainly: Yeast growth rescue of SEC53 variant strains (validation of drug screen hits). Type of assay: cell-based. The note with it: haploid and heterozygous diploid cells; dose response. The method, then: All strains used herein are in S288c background. Strains were grown in Synthetic Complete (“SC”) or SC drop out media (Sunrise)+2% dextrose at 30° C. unless otherwise noted. Standard genetic procedures of transformation and tetrad analysis were followed to construct strains. SEC53 rescue plasmid (pPL1) was generated by cloning the SEC53 promoter, open reading frame, and terminator sequences into the episomal pRS316 containing the URA3 selectable marker. SEC53 variants were generated by cloning the relevant promoter, GFP or SEC53 gene, and CYC1 terminator sequences into an integrating plasmid containing the LEU2 selectable marker and integrated at the SwaI restriction site into the HO locus. For PMM2 variants, the SEC53 ORF was replaced with a codon-optimized PMM2. Plasmids were generated by Next Interactions or GenScript. Strains were generated by Next Interactions or well-known techniques.
Cells from plates were resuspended in SC media to OD600=1.0, then serial diluted into 50 μL SC+FOA media in 384-well plates at 10^−1, 10^−2, and 10^−3. Plates were incubated at 30° C. and absorbance reading at […] were measured by a plate reader (Molecular Devices SpectraMax M3) at the indicated time points. Plates were vortexed briefly to resuspend cells prior to plate readings. 5-floroortic acid was purchased from US Biological and used at a concentration of 1 mg/L.
125 nL of compounds or DMSO were dispensed into 384-well plates using the Echo acoustic dispenser (LabCyte) to achieve a final concentration of 25 μM. 50 μL of 10^−2 dilution of an OD600=1.0 or 0.5 yeast cell suspensions were dispensed into the 384-well plates containing compounds or DMSO with a MultiFlo automated dispenser (Biotek). Plates were covered and incubated at 30° C. for 16-21 hours until OD600 reaches ˜0.8. Plates were vortexed briefly to resuspend cells prior to reading.
MicroSource Spectrum compounds were reordered from MicroSource Discovery Systems and resuspended in DMSO. 5-125 nL compounds or DMSO were dispensed into 384-well plates and 50 μL of yeast cell suspensions or media were dispensed by multichannel pipettes to achieve the desired concentration. Plates were covered and incubated at 30° C. for 16-23 hours until OD600 reaches ˜0.8. Plates were vortexed briefly to resuspend cells prior to plate readings.
pACT1-F126L, pSEC53-V238M, and pSEC53-F126L haploids and pACT1-F126L/pACT1-R148H, pSEC53-V238M/pSEC53-R148H, and pSEC53-F126L/pSEC53-R148H heterozygous diploids were advanced to a high-throughput drug screen. Screening was done in a 2,560 compound MicroSource Spectrum library collection consisting of FDA approved drugs, bioactive tool compounds, and natural products. Each strain was screened in duplicate and in 384-well plates, with each plate containing 32 wells of the negative control (no drugs) and 24 wells of the positive controls (wild type cells). […] Additionally, there is good correlation between replicates (correlation >0.4 for all panels). With a Z-score cutoff of 2.0, we initially identified six compounds that may be promising and their ability to rescue growth is conserved between the haploid and diploid strains.
These initial hits were further studied for validation. […] At the maximum dose tested, alpha-cyano-4-hydroxycinnamic acid (Compound 1) rescues the F126L allele by 17.7% in haploid and 24.5% in diploid cells.
With `Cc1ccc(C(=O)Nc2ccc(S(=O)(=O)O)c3cc(S(=O)(=O)O)cc(S(=O)(=O)O)c23)cc1NC(=O)c1cccc(NC(=O)Nc2cccc(C(=O)Nc3cc(C(=O)Nc4ccc(S(=O)(=O)O)c5cc(S(=O)(=O)O)cc(S(=O)(=O)O)c45)ccc3C)c2)c1` [Compound 3, 8-[[4-methyl-3-[[3-[[3-[[2-methyl-5-[(4,6,8-trisulfonaphthalen-1-yl)carbamoyl]phenyl]carbamoyl]phenyl]carbamoylamino]benzoyl]amino]benzoyl]amino]naphth alene-1,3,5-trisulfonic acid], the “rescue of growth of SEC53 alleles” value is “consistent and dose-dependent rescues”.

Consider `NCCS` [cysteamine hydrochloride, reference compound], for which the “rescue of growth of SEC53 alleles” value is “does not rescue at any dose”.

Another assay relates to pmm-2 F125L/F125L worms. Put plainly: Bortezomib-induced growth suppression rescue screen in pmm-2 F125L worms. It counts as in vivo, nematode (worms). To be noted: 25 μM drug, 11 μM Bzb, 5 days; one row per replicate. The source says: A F119L point mutation strain, orthologous F125L in worms was created.
Because an underlying defect in glycosylation may be manifested when subjected to external chemical stressors, Pmm-2 F119L homozygous animals were subjected to Tunicamycin and Bortezomib drug exposures. Tunicamycin is an inhibitor of N-linked glycosylation and Bortezomib (Bzb) is an irreversible inhibitor of the proteasome. It was contemplated that either or both drugs would affect the Pmm-2 mutants differently compared to wild type (“WT”).
Thus, Bzb-induced growth suppression was used as a means to identify compounds that might rescue the global effects of exacerbated glycosylation deficiency. Using this approach, animals were age-synchronized to obtain L1 larvae. Fifteen L1 larvae were dispensed into wells of a 384-well plate containing 25 μM of drugs (obtained from the MicroSource Spectrum library purchased from MicroSource Discovery Systems) and 11 μM Bzb. Bacterial media at fixed optical density was added to wells to enable worms to grow for a 5 day period. Animals were dispensed using Biosorter, a large particle flow cytometer by Union Biometrica, Mass. At the end of the 5 day period, animals were treated with 15 μls of 8 mM sodium azide (for 55 μls of total assay volume). After 20 minutes, immobilized animals were imaged using a plate imager under transmitted light. A custom image processing script was used to extract the areas occupied by worms/well over a 5 day period. Each plate has positive controls (no Bzb) and negative controls (11 μM Bzb) that was used to determine the z score of test wells per plate. After outlier correction for each plate in each replicate, data from all three replicates was compared. Wells per plate with positive z scores greater than 2 were identified as “hits.” If hits reproduced across all three replicates were then compared. […] At least 13 of the 20 compounds belong to the category of antioxidants; still others fall in the category of catecholamines
Take `N[C@@H](Cc1ccc(O)c(O)c1)C(=O)O` [LEVODOPA, levodopa, reference compound]: the Status result is “HIT (Wells per plate with positive z scores greater than 2 were identified as “hits.”)”. For the molecule `O=C(O[C@@H]1Cc2c(O)cc(O)cc2O[C@@H]1c1ccc(O)c(O)c1)c1cc(O)c(O)c(O)c1` [EPICATECHIN MONOGALLATE, epicatechin monogallate], the Status entry was “HIT (Wells per plate with positive z scores greater than 2 were identified as “hits.”)”.

Consider `CCC(N)C(O)c1ccc(O)c(O)c1` (stereo not shown) [ETHYLNOREPINEPHRINE HYDROCHLORIDE, ethylnorepinephrine hydrochoride, reference compound], for which the Status result is reported as “HIT (Wells per plate with positive z scores greater than 2 were identified as “hits.”)”. On the same count and under the same terms, the same measure for `COc1ccc(C(=O)c2ccc(O)cc2)c(O)c1O` [2,3,4′-TRIHYDROXY-4-METHOXYBENZOPHENONE, 2,3,4′-trihydroxy-4-methoxybenzophenone]: “HIT (Wells per plate with positive z scores greater than 2 were identified as “hits.”)”. As to `CCOc1cccc(C(=O)c2ccc(O)c(O)c2O)c1` [3,4-didesmethyl-5-deshydroxy-3′-ethoxyscleroin], the Status result is reported as “HIT (Wells per plate with positive z scores greater than 2 were identified as “hits.”)”. Turning to `COc1cc(OC)c2c(=O)c(O)c(-c3ccc(OC)c(OC)c3)oc2c1` [QUERCETIN 5,7,3,4′-TETRAMETHYL ETHER, quercetin 5,7,3′,4′-tetramethyl ether], the Status result was “HIT (Wells per plate with positive z scores greater than 2 were identified as “hits.”)”.

For the molecule `O=c1c(O)c(-c2ccc(O)c(O)c2)oc2c(O)c(O)cc(O)c12` [GOSSYPETIN, gossypetin], the Status result was “HIT (Wells per plate with positive z scores greater than 2 were identified as “hits.”)”. On to `O=c1oc2c(O)c(O)cc3c(=O)oc4c(O)c(O)cc1c4c23` [ELLAGIC ACID, ellagic acid], for which the Status result is on record as “HIT (Wells per plate with positive z scores greater than 2 were identified as “hits.”)”. In the case of `O=C(O[C@@H]1Cc2c(O)cc(O)cc2O[C@@H]1c1cc(O)c(=O)c2c(O)c(O)cc([C@H]3Oc4cc(O)cc(O)c4C[C@H]3O)c2c1)c1cc(O)c(O)c(O)c1` [THEAFLAVIN MONOGALLATES, theaflavin monogallate], the Status result is “HIT (Wells per plate with positive z scores greater than 2 were identified as “hits.”)”. Take `O=C(O)c1cc(O)c(=O)c2c(O)c(O)c(O)cc2c1` [PURPUROGALLIN-4-CARBOXYLIC ACID, purpurogallin-4-carboxylic acid]: the Status entry was “HIT (Wells per plate with positive z scores greater than 2 were identified as “hits.”)”. With `O=c1cc(-c2cc(O)c(O)c(O)c2)oc2cc(O)cc(O)c12` [HIERACIN, hieracin], the Status entry is on record as “HIT (Wells per plate with positive z scores greater than 2 were identified as “hits.”)”. Take `O=c1c(O)cccc2ccc(O)c(O)c12`: the Status entry was “HIT (Wells per plate with positive z scores greater than 2 were identified as “hits.”)”. In the case of `CC(CCc1ccc(O)cc1)NCCc1ccc(O)c(O)c1` (stereo not shown) [DOBUTAMINE HYDROCHLORIDE, dobutamine hydrochloride, reference compound], the Status result is recorded as “HIT (Wells per plate with positive z scores greater than 2 were identified as “hits.”)”.

For `COc1ccc(-c2coc3cc(O)ccc3c2=O)c(O)c1O` [KOPARIN, koparin], the Status result is on record as “HIT (Wells per plate with positive z scores greater than 2 were identified as “hits.”)”.

Take `COc1cc(O)c2c(=O)c(O)c(-c3ccc(O)c(O)c3)oc2c1` [RHAMNETIN, rhamnetin]: the Status entry is on record as “HIT (Wells per plate with positive z scores greater than 2 were identified as “hits.”)”. As to `Nc1ccc(O)c(N)c1` [AMIDOL DIHYDROCHLORIDE, amidol dihydrochloride], the Status entry is on record as “HIT (Wells per plate with positive z scores greater than 2 were identified as “hits.”)”.

In the case of `O=c1c(O)c(-c2ccc(O)c(O)c2)oc2cc(O)ccc12` [FISETIN, fisetin], the Status result was “HIT (Wells per plate with positive z scores greater than 2 were identified as “hits.”)”. Turning to `COc1cccc(O)c1O` [3-METHOXYCATECHOL, 3-methoxycatechol], the Status result was “HIT (Wells per plate with positive z scores greater than 2 were identified as “hits.”)”. Turning to `CC1=NN(c2ccccc2)C(=O)C1` [EDARAVONE, edaravone, reference compound], the Status result is given as “HIT (Wells per plate with positive z scores greater than 2 were identified as “hits.”)”. As to `O=c1cc(-c2ccccc2)oc2cc(O)c(O)c(O)c12` [BAICALEIN, baicalein], the Status entry is reported as “HIT (Wells per plate with positive z scores greater than 2 were identified as “hits.”)”.
